Reference: US20090155209A1, “NOVEL MACROCYCLIC INHIBITORS OF HEPATITIS C VIRUS REPLICATION” (priority 2007, published 2009)

molecular target: NS3-NS4 (Hepatitis C virus genotype 1a, UniProt P27958); experiment: NS3-NS4 activity, IC50 (Example 37, Table 8); type: biochemical
Sequence (P27958 1027-1657): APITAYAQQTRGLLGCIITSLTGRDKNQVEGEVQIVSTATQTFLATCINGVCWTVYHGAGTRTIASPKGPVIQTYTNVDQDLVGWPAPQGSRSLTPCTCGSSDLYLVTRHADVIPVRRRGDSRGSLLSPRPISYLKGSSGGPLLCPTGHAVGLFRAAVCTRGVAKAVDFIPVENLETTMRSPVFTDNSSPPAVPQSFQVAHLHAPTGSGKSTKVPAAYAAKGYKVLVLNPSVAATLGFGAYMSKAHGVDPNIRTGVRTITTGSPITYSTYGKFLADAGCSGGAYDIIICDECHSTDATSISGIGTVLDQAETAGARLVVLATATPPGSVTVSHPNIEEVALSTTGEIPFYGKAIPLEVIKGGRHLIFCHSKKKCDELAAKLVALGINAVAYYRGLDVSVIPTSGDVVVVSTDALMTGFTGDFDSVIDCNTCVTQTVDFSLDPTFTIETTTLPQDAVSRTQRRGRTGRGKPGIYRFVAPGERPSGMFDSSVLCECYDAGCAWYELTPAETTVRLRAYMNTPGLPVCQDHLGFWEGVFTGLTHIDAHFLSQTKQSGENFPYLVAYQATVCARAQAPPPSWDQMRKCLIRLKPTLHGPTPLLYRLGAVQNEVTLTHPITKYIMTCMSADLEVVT
Sequence (P27958 1658-1711): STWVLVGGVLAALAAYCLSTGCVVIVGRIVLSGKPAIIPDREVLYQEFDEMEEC

`CC(C)(C)OC(=O)N[C@H]1CCCCCCC[C@@H]2C[C@@]2(C(=O)NS(=O)(=O)Cc2cc(F)cc(F)c2)NC(=O)[C@@H]2C[C@@H](OC(=O)N3Cc4cccc(F)c4C3)CN2C1=O` [Compound 623] and `CC(C)(C)OC(=O)N[C@H]1CCCCCCC[C@@H]2C[C@@]2(C(=O)NS(=O)(=O)Cc2ccc(F)c(F)c2)NC(=O)[C@@H]2C[C@@H](OC(=O)N3Cc4cccc(F)c4C3)CN2C1=O` [Compound 622] cannot be ordered by IC50: under 100 nM for the first, under 100 nM for the second.

`CC(C)(C)OC(=O)N[C@H]1CCCCCCC[C@@H]2C[C@@]2(C(=O)NS(=O)(=O)Cc2cc(F)ccc2F)NC(=O)[C@@H]2C[C@@H](OC(=O)N3Cc4cccc(F)c4C3)CN2C1=O` [Compound 620] and `CC(C)(C)OC(=O)N[C@H]1CCCCCCC[C@@H]2C[C@@]2(C(=O)NS(=O)(=O)Cc2ccccc2F)NC(=O)[C@@H]2C[C@@H](OC(=O)N3Cc4cccc(F)c4C3)CN2C1=O` [Compound 607] cannot be ordered by IC50: under 100 nM for the first, under 100 nM for the second.

`Cc1ccccc1ONC(=O)[C@@]12C[C@H]1/C=C\CCCCC[C@H](NC(=O)OC(C)(C)C)C(=O)N1C[C@H](OC(=O)N3Cc4cccc(F)c4C3)C[C@H]1C(=O)N2` [Compound 701] and `CC(C)(C)OC(=O)N[C@H]1CCCCC/C=C\[C@@H]2C[C@@]2(C(=O)NOc2cccc(Cl)c2)NC(=O)[C@@H]2C[C@@H](OC(=O)N3Cc4cccc(F)c4C3)CN2C1=O` [Compound 706] cannot be ordered by IC50: under 100 nM for the first, under 100 nM for the second.

`CC(C)(C)OC(=O)N[C@H]1CCCCCCC[C@@H]2C[C@@]2(C(=O)NS(=O)(=O)Cc2c(F)cccc2F)NC(=O)[C@@H]2C[C@@H](OC(=O)N3Cc4cccc(F)c4C3)CN2C1=O` [Compound 621] and `CC(C)(C)OC(=O)N[C@H]1CCCCCCC[C@@H]2C[C@@]2(C(=O)NS(=O)(=O)Cc2c(Cl)cccc2Cl)NC(=O)[C@@H]2C[C@@H](OC(=O)N3Cc4cccc(F)c4C3)CN2C1=O` [Compound 626] cannot be ordered by IC50: under 100 nM for the first, under 100 nM for the second.

`CC(C)(C)OC(=O)N[C@H]1CCCCC/C=C\[C@@H]2C[C@@]2(C(=O)NS(=O)(=O)c2ccc(Cl)s2)NC(=O)[C@@H]2C[C@@H](OC(=O)N3Cc4cccc(F)c4C3)CN2C1=O` [Compound 535] and `CC(C)(C)OC(=O)N[C@H]1CCCCC/C=C\[C@@H]2C[C@@]2(C(=O)NS(=O)(=O)c2ccc(Cl)nc2)NC(=O)[C@@H]2C[C@@H](OC(=O)N3Cc4cccc(F)c4C3)CN2C1=O` [Compound 530] cannot be ordered by IC50: under 100 nM for the first, under 100 nM for the second.

`Cc1cc(S(=O)(=O)NC(=O)[C@@]23C[C@H]2CCCCCCC[C@H](NC(=O)OC(C)(C)C)C(=O)N2C[C@H](OC(=O)N4Cc5cccc(F)c5C4)C[C@H]2C(=O)N3)sc1C` [Compound 646] and `CC(C)(C)OC(=O)N[C@H]1CCCCCCC[C@@H]2C[C@@]2(C(=O)NS(=O)(=O)c2cc(Cl)c(Cl)s2)NC(=O)[C@@H]2C[C@@H](OC(=O)N3Cc4cccc(F)c4C3)CN2C1=O` [Compound 643] cannot be ordered by IC50: under 100 nM for the first, under 100 nM for the second.

`COc1cccc(CS(=O)(=O)NC(=O)[C@@]23C[C@H]2CCCCCCC[C@H](NC(=O)OC(C)(C)C)C(=O)N2C[C@H](OC(=O)N4Cc5cccc(F)c5C4)C[C@H]2C(=O)N3)c1OC` [Compound 631] and `COc1cccc(CS(=O)(=O)NC(=O)[C@@]23C[C@H]2CCCCCCC[C@H](NC(=O)OC(C)(C)C)C(=O)N2C[C@H](OC(=O)N4Cc5cccc(F)c5C4)C[C@H]2C(=O)N3)c1` [Compound 616] cannot be ordered by IC50: under 100 nM for the first, under 100 nM for the second.

`CC(C)(C)OC(=O)N[C@H]1CCCCCCC[C@@H]2C[C@@]2(C(=O)NS(=O)(=O)Cc2ccc(Cl)cc2Cl)NC(=O)[C@@H]2C[C@@H](OC(=O)N3Cc4cccc(F)c4C3)CN2C1=O` [Compound 624] and `CC(C)(C)OC(=O)N[C@H]1CCCCCCC[C@@H]2C[C@@]2(C(=O)NS(=O)(=O)Cc2cc(Cl)ccc2Cl)NC(=O)[C@@H]2C[C@@H](OC(=O)N3Cc4cccc(F)c4C3)CN2C1=O` [Compound 625] cannot be ordered by IC50: under 100 nM for the first, under 100 nM for the second.

`CC(C)(C)OC(=O)N[C@H]1CCCCCCC[C@@H]2C[C@@]2(C(=O)NS(=O)(=O)Cc2cccc(C(F)(F)F)c2)NC(=O)[C@@H]2C[C@@H](OC(=O)N3Cc4cccc(F)c4C3)CN2C1=O` [Compound 618] and `CC(C)(C)OC(=O)N[C@H]1CCCCCCC[C@@H]2C[C@@]2(C(=O)NS(=O)(=O)Cc2ccc(C(F)(F)F)cc2)NC(=O)[C@@H]2C[C@@H](OC(=O)N3Cc4cccc(F)c4C3)CN2C1=O` [Compound 619] cannot be ordered by IC50: under 100 nM for the first, under 100 nM for the second.

First: CC(C)(C)OC(=O)N[C@H]1CCCCCC2C([C@@H]3C[C@@]3(C(=O)NS(=O)(=O)C3CC3)NC(=O)[C@@H]3C[C@@H](OC(=O)N4Cc5cccc(F)c5C4)CN3C1=O)C2(Cl)Cl (some centres unmarked) [Compound 907]
Second: CC(C)(C)OC(=O)N[C@H]1CCCCCCC[C@@H]2C[C@@]2(C(=O)NS(=O)(=O)c2cc(Cl)cs2)NC(=O)[C@@H]2C[C@@H](OC(=O)N3Cc4cccc(F)c4C3)CN2C1=O [Compound 642]
The IC50 of the first is higher: 100 to 1000 nM for the first, under 100 nM for the second. The second is the more potent here.

`CC(C)(C)OC(=O)N[C@H]1CCCCCCC[C@@H]2C[C@@]2(C(=O)NS(=O)(=O)c2cccnc2Cl)NC(=O)[C@@H]2C[C@@H](OC(=O)N3Cc4cccc(F)c4C3)CN2C1=O` [Compound 635] and `CC(C)(C)OC(=O)N[C@H]1CCCCCCC[C@@H]2C[C@@]2(C(=O)NS(=O)(=O)c2ccc(Cl)nc2)NC(=O)[C@@H]2C[C@@H](OC(=O)N3Cc4cccc(F)c4C3)CN2C1=O` [Compound 636] cannot be ordered by IC50: under 100 nM for the first, under 100 nM for the second.

`COc1cccc(CS(=O)(=O)NC(=O)[C@@]23C[C@H]2/C=C\CCCCC[C@H](NC(=O)OC(C)(C)C)C(=O)N2C[C@H](OC(=O)N4Cc5cccc(F)c5C4)C[C@H]2C(=O)N3)c1` [Compound 516] and `Cc1ccccc1CS(=O)(=O)NC(=O)[C@@]12C[C@H]1/C=C\CCCCC[C@H](NC(=O)OC(C)(C)C)C(=O)N1C[C@H](OC(=O)N3Cc4cccc(F)c4C3)C[C@H]1C(=O)N2` [Compound 513] cannot be ordered by IC50: under 100 nM for the first, under 100 nM for the second.

`CC(C)(C)ONC(=O)[C@@]12C[C@H]1/C=C\CCCCC[C@H](NC(=O)OC(C)(C)C)C(=O)N1C[C@H](OC(=O)N3Cc4cccc(F)c4C3)C[C@H]1C(=O)N2` [Compound 716] and `CC(C)(C)OC(=O)N[C@H]1CCCCC/C=C\[C@@H]2C[C@@]2(C(=O)NOCC2CC2)NC(=O)[C@@H]2C[C@@H](OC(=O)N3Cc4cccc(F)c4C3)CN2C1=O` [Compound 717] cannot be ordered by IC50: under 100 nM for the first, under 100 nM for the second.

`CC(C)(C)OC(=O)N[C@H]1CCCCCCC[C@@H]2C[C@@]2(C(=O)NS(=O)(=O)Cc2cccc(F)c2)NC(=O)[C@@H]2C[C@@H](OC(=O)N3Cc4cccc(F)c4C3)CN2C1=O` [Compound 608] and `CC(C)(C)OC(=O)N[C@H]1CCCCCCC[C@@H]2C[C@@]2(C(=O)NS(=O)(=O)Cc2cccc(Cl)c2)NC(=O)[C@@H]2C[C@@H](OC(=O)N3Cc4cccc(F)c4C3)CN2C1=O` [Compound 611] cannot be ordered by IC50: under 100 nM for the first, under 100 nM for the second.

`CC(C)(C)OC(=O)N[C@H]1CCCCCCC[C@@H]2C[C@@]2(C(=O)NS(=O)(=O)Cc2ccccc2C(F)(F)F)NC(=O)[C@@H]2C[C@@H](OC(=O)N3Cc4cccc(F)c4C3)CN2C1=O` [Compound 617] and `CC(C)(C)OC(=O)N[C@H]1CCCCCCC[C@@H]2C[C@@]2(C(=O)NS(=O)(=O)Cc2ccc(C(F)(F)F)cc2C(F)(F)F)NC(=O)[C@@H]2C[C@@H](OC(=O)N3Cc4cccc(F)c4C3)CN2C1=O` [Compound 633] cannot be ordered by IC50: under 100 nM for the first, under 100 nM for the second.

`Cc1cc(S(=O)(=O)NC(=O)[C@@]23C[C@H]2/C=C\CCCCC[C@H](NC(=O)OC(C)(C)C)C(=O)N2C[C@H](OC(=O)N4Cc5cccc(F)c5C4)C[C@H]2C(=O)N3)sc1C` [Compound 540] and `CC(C)(C)OC(=O)N[C@H]1CCCCC/C=C\[C@@H]2C[C@@]2(C(=O)NS(=O)(=O)c2ccc(Cl)nc2Cl)NC(=O)[C@@H]2C[C@@H](OC(=O)N3Cc4cccc(F)c4C3)CN2C1=O` [Compound 531] cannot be ordered by IC50: under 100 nM for the first, under 100 nM for the second.

`Cc1ccc(CS(=O)(=O)NC(=O)[C@@]23C[C@H]2CCCCCCC[C@H](NC(=O)OC(C)(C)C)C(=O)N2C[C@H](OC(=O)N4Cc5cccc(F)c5C4)C[C@H]2C(=O)N3)cc1C` [Compound 630] and `Cc1ccc(CS(=O)(=O)NC(=O)[C@@]23C[C@H]2CCCCCCC[C@H](NC(=O)OC(C)(C)C)C(=O)N2C[C@H](OC(=O)N4Cc5cccc(F)c5C4)C[C@H]2C(=O)N3)c(C)c1` [Compound 628] cannot be ordered by IC50: under 100 nM for the first, under 100 nM for the second.

`Cc1ccc(CS(=O)(=O)NC(=O)[C@@]23C[C@H]2CCCCCCC[C@H](NC(=O)OC(C)(C)C)C(=O)N2C[C@H](OC(=O)N4Cc5cccc(F)c5C4)C[C@H]2C(=O)N3)cc1` [Compound 615] and `Cc1cccc(CS(=O)(=O)NC(=O)[C@@]23C[C@H]2CCCCCCC[C@H](NC(=O)OC(C)(C)C)C(=O)N2C[C@H](OC(=O)N4Cc5cccc(F)c5C4)C[C@H]2C(=O)N3)c1` [Compound 614] cannot be ordered by IC50: under 100 nM for the first, under 100 nM for the second.

`Cc1ccc(S(=O)(=O)NC(=O)[C@@]23C[C@H]2CCCCCCC[C@H](NC(=O)OC(C)(C)C)C(=O)N2C[C@H](OC(=O)N4Cc5cccc(F)c5C4)C[C@H]2C(=O)N3)s1` [Compound 644] and `CC(C)(C)OC(=O)N[C@H]1CCCCCCC[C@@H]2C[C@@]2(C(=O)NS(=O)(=O)c2ccc(Cl)s2)NC(=O)[C@@H]2C[C@@H](OC(=O)N3Cc4cccc(F)c4C3)CN2C1=O` [Compound 641] cannot be ordered by IC50: under 100 nM for the first, under 100 nM for the second.

`CC(C)(C)OC(=O)N[C@H]1CCCCC/C=C\[C@@H]2C[C@@]2(C(=O)NOc2ccc(F)cc2)NC(=O)[C@@H]2C[C@@H](OC(=O)N3Cc4cccc(F)c4C3)CN2C1=O` [Compound 705] and `COc1ccc(S(=O)(=O)NC(=O)[C@@]23C[C@H]2/C=C\CCCCC[C@H](NC(=O)OC(C)(C)C)C(=O)N2C[C@H](OC(=O)N4Cc5cccc(F)c5C4)C[C@H]2C(=O)N3)cn1` [Compound 532] cannot be ordered by IC50: under 100 nM for the first, under 100 nM for the second.

`CC(C)(C)OC(=O)N[C@H]1CCCCCCC[C@@H]2C[C@@]2(C(=O)NS(=O)(=O)Cc2cc(C(F)(F)F)cc(C(F)(F)F)c2)NC(=O)[C@@H]2C[C@@H](OC(=O)N3Cc4cccc(F)c4C3)CN2C1=O` [Compound 634] and `CC(C)(C)OC(=O)N[C@H]1CCCCCCC[C@@H]2C[C@@]2(C(=O)NS(=O)(=O)Cc2ccc(Cl)c(Cl)c2)NC(=O)[C@@H]2C[C@@H](OC(=O)N3Cc4cccc(F)c4C3)CN2C1=O` [Compound 627] cannot be ordered by IC50: under 100 nM for the first, under 100 nM for the second.

`COc1csc(S(=O)(=O)NC(=O)[C@@]23C[C@H]2CCCCCCC[C@H](NOC(=O)C(C)(C)C)C(=O)N2C[C@H](OC(=O)N4Cc5cccc(F)c5C4)C[C@H]2C(=O)N3)c1` [Compound 647] and `Cc1ccccc1ONC(=O)[C@@]12C[C@H]1CCCCCCC[C@H](NC(=O)OC(C)(C)C)C(=O)N1C[C@H](OC(=O)N3Cc4cccc(F)c4C3)C[C@H]1C(=O)N2` [Compound 804] cannot be ordered by IC50: under 100 nM for the first, under 100 nM for the second.
